Test results taken from patent US7101876B2, “Substituted benzoxazines as integrin antagonists” (Pharmacia Corporation, priority 2001, dated 2006).

Key:
human αvβ3 integrin = molecular target: T1, human αvβ3 integrin (Homo sapiens, UniProt P05106+P06756); assay: αvβ3-vitronectin binding assay (solid phase)
T1 construct: Human vitronectin receptor (αvβ3) was purified from human placenta; from tissue; host or cells: human placenta
Experimental: (§1) A solid phase assay for the study of αvβ3-vitronectin binding was set up on the basis of already published methods (WONG et al., Molecular Pharmacology 50: 529–537, 1996; Brooks et al., Cell 85: 683–693, 1996). The human αvβ3 integrin was diluted into coating buffer (CB) containing 150 mM NaCl, 1 mM CaCl2, 1 mM MgCl2, 1 mM MnCl2, 20 mM TRIS, pH 7.4 at a concentration of 1.5 μg/ml. Into 96-well plates, 50 μl of the diluted integrin were added and allowed to bind to the plate walls overnight at 4° C. Next day, the assay plates were emptied and 100 μl of blocking buffer (CB buffer with 3% BSA) were added to each well for 45 min at 37° C. […] Then, the plates were washed as described and 50 μl of ready to use Turbo-TMB substrate for peroxydase were added to each well. After 30 minutes incubation at room temperature, the color development was stopped with 50 μl sulphuric acid 0.38 M and the plates were read at a wavelength of 450 nm with a Packard plate reader. The values obtained were analyzed by four parameters curve fit in the computer program GraphPad Prism, after normalization by a maximum binding control (Bmax) detected in wells where no competitor was added, and a minimum binding control (NSB) detected in wells where no integrin was coated. […]

αIIbβ3 integrin = molecular target: T2, αIIbβ3 integrin (Homo sapiens, UniProt P05106+P08514); assay: αIIbβ3-fibrinogen binding assay (solid phase); details: inhibition of biotinylated fibrinogen (10 nM) binding to coated integrin; read-out: αIIbβ3 (IC50 μmol)
T2 construct: Human fibrinogen receptor (αIIbβ3) was purified from human platelets; from tissue; host or cells: human platelets
T2 sequence (P08514 32-887 limits assumed): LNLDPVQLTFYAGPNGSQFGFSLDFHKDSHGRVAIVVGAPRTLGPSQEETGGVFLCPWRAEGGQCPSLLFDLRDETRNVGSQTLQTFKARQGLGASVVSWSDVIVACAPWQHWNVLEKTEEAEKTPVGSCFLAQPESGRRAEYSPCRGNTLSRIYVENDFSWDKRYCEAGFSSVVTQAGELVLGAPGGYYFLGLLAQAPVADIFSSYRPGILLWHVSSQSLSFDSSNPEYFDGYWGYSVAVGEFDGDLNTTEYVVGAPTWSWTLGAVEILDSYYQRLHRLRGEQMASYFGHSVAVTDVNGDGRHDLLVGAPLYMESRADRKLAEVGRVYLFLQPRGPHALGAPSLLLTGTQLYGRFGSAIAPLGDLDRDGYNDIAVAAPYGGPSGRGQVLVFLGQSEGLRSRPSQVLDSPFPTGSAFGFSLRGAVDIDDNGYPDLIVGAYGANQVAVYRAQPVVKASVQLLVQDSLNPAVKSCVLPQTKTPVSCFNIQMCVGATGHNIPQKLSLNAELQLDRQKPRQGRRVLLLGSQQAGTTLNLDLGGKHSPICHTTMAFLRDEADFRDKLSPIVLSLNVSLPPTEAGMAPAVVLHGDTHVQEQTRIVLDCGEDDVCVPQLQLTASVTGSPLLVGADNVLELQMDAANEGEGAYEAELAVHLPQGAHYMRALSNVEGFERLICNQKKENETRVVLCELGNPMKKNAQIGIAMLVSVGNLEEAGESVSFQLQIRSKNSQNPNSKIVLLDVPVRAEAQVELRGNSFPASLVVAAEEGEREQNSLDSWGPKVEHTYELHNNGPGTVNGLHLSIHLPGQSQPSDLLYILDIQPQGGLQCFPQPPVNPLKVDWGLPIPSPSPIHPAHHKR
T2 sequence (P08514 891-1039 partner limits assumed): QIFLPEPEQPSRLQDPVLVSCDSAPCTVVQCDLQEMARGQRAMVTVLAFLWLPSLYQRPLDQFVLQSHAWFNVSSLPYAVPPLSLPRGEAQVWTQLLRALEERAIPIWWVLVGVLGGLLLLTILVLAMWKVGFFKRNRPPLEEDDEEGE
T2 sequence (P05106 27-788): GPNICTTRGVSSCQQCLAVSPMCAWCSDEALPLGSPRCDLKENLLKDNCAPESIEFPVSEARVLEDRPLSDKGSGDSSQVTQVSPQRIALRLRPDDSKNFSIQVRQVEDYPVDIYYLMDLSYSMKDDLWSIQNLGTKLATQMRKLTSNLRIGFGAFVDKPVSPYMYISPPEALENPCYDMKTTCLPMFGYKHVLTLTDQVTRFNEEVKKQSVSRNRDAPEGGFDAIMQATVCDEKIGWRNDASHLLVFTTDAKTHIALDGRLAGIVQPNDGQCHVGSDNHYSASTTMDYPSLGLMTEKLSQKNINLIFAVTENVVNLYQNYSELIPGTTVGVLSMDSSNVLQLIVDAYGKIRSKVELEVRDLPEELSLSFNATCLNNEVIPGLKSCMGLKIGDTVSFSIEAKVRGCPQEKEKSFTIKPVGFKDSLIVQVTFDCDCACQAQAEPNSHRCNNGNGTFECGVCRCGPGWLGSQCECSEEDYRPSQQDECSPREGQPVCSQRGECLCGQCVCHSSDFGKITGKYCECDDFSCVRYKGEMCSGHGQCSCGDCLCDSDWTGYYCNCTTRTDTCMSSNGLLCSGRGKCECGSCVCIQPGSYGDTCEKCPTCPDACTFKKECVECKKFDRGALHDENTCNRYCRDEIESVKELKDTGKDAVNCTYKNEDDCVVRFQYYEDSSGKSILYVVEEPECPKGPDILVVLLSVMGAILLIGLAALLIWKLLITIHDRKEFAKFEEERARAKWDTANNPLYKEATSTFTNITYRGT
Experimental: as §1, with “of αIIbβ3-fibrinogen” for “of αvβ3-vitronectin”, “up according to” for “up on”, “the method described for αvβ3. αIIbβ3” for “the basis of already published methods (WONG et al., Molecular Pharmacology 50: 529–537, 1996; Brooks et al., Cell 85: 683–693, 1996). The human αvβ3”, “mM Cacl2,” for “mM CaCl2,”, “of 3” for “of 1.5”, “fit with” for “fit in”

T1 sequence (P06756 31-889 limits assumed): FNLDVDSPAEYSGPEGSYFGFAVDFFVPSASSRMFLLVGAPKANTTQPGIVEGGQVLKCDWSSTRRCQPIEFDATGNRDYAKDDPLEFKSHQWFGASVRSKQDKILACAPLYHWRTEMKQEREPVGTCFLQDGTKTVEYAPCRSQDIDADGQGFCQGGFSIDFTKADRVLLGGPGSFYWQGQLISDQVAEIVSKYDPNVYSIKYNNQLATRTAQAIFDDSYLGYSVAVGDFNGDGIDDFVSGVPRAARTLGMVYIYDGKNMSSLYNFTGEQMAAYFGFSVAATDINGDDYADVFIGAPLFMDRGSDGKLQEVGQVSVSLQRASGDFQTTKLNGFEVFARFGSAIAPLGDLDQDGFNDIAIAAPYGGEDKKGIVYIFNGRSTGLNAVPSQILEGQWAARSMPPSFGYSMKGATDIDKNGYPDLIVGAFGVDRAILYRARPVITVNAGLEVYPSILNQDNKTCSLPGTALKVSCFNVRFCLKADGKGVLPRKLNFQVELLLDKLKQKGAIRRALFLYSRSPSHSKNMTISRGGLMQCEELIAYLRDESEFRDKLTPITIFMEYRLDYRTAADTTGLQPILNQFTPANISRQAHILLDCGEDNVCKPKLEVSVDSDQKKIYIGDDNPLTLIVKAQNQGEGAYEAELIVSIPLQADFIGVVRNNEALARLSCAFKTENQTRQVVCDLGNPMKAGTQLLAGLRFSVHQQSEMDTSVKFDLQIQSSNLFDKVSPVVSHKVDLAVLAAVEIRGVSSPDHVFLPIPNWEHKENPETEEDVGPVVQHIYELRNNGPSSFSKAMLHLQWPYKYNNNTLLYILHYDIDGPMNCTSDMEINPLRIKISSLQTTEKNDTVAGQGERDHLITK
T1 sequence (P06756 891-1048 partner limits assumed): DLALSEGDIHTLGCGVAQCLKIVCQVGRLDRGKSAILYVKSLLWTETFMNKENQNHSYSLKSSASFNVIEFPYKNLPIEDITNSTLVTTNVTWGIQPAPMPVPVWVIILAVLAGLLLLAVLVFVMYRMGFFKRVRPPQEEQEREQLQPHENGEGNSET
T1 sequence (P05106 27-788): as the sequence (P05106 27-788) above

How did the IC50 (human αvβ3 integrin; inhibition of biotinylated vitronectin (5 nM) binding to coated integrin, read-out: αvβ3 (IC50 μmol)) turn out when `O=C(O)CC(Nc1ccc2c(c1)OCC(=O)N2CCCNc1ccccn1)c1ccccc1` (stereo not drawn) [3-{4-[3-(N-(2-pyridinyl)amino)propyl]-3-oxo-3,4-dihydro-2H-1,4-benzoxazin-7-yl)amino}-3-phenylpropanoic acid] was run?
Its IC50 is 11 ± 4 nM.

And the “ratio between αIIbβ3 and αvβ3 inhibiting activity” value (human αvβ3 integrin; selectivity, αIIbβ3 IC50 / αvβ3 IC50)?
The value was “about 1,000”.

What about the IC50 (αIIbβ3 integrin) of the same molecule?
The IC50 was 18 µM.
